≈ marks a conversion by molar mass, not a printed value.
System: Mycobacterium tuberculosis
Assay: Antimycobacterial activity against Mycobacterium tuberculosis H37Rv ATCC 27294 after 7 days by microplate alamar blue assay
Assay type: functional
Conditions: H37Rv ATCC 27294, 168 h

| Compound | MIC90 [µg/mL] |
| --- | --- |
| O=C(c1ccc([N+](=O)[O-])o1)N1CCc2ccccc21 | 0.482 (≈ 1.87 µM) |
| O=C(c1ccc([N+](=O)[O-])o1)N1CC/C(=N\OCc2ccccc2)C1 | 0.291 (≈ 0.884 µM) |
| O=C(c1ccc([N+](=O)[O-])o1)N1CCC(=NOCc2ccc(C(F)(F)F)cc2)CC1 | > 32 |
| CON=C1CCN(C(=O)c2ccc([N+](=O)[O-])o2)CC1 | 1.93 (≈ 7.23 µM) |
| O=C(c1ccc([N+](=O)[O-])o1)N1CCC(=NOCc2ccc([N+](=O)[O-])cc2)CC1 | > 32 |
| CCON=C1CCN(C(=O)c2ccc([N+](=O)[O-])o2)CC1 | 14.1 (≈ 50.3 µM) |
| O=C(c1ccc([N+](=O)[O-])o1)N1CCC(=NOCc2ccccc2)CC1 | 0.158 (≈ 0.46 µM) |
| O=C(c1ccc([N+](=O)[O-])o1)N1CCC(=NOCc2ccc(OC(F)(F)F)cc2)CC1 | > 32 |
| CO/N=C1\CCN(C(=O)c2ccc([N+](=O)[O-])o2)C1 | 1.83 (≈ 7.22 µM) |
| CCO/N=C1\CCN(C(=O)c2ccc([N+](=O)[O-])o2)C1 | > 32 |
| O=C(c1ccc([N+](=O)[O-])o1)N1CCC(=NOCc2ccc(F)cc2)CC1 | 5.88 (≈ 16.3 µM) |
| NNC(=O)c1ccncc1 [ISONIAZID] | 0.035 (≈ 0.255 µM) |
| CO[C@H]1/C=C/O[C@@]2(C)Oc3c(C)c(O)c4c(O)c(c(/C=N/N5CCN(C)CC5)c(O)c4c3C2=O)NC(=O)/C(C)=C\C=C\[C@H](C)[C@H](O)[C@@H](C)[C@@H](O)[C@@H](C)[C@H](OC(C)=O)[C@@H]1C [RIFAMPIN] | 0.059 (≈ 0.0717 µM) |
